# Results reported in paper PMC5560554, “Targeting of CDK9 with indirubin 3’-monoxime safely and durably reduces HIV viremia in chronically infected humanized mice” (PLoS ONE, 2017).
# Where two headings read alike, the source gives them in different places.
# Tested on: HIV-1 NL4-3
# Test: Drug susceptibility assay in PHA-activated PBMCs (HIV p24 ELISA day 7)
# Assay type: cell-based
# Conditions: for decrease of ART EC50 value at 1 μM IM: HIV-1 NL4-3 in PBMCs, EC50 without IM vs with 1 μM IM; for EC50: Human immunodeficiency virus 1, NL43, PBMC, 168 h, HIV NL4-3 in PBMCs, p24 day 7, (95% CI) in cell; for P24: PBMCs, NL4-3, day 7
# Method: The ARTs tenofovir, raltegravir and indinavir were obtained from the NIH AIDS Research and Reference Reagent Program (Gaithersburg, MD). Drug susceptibility assays were performed in PBMCs as previously. Briefly, donor PBMCs were activated by culture with phytohemagglutinin (PHA) for 3 days. Activated PBMCs were infected with HIV (M.O.I of 0.001) for 2 hours in the absence of IM or ARTs, washed to remove non-adsorbed virus, and plated in culture medium containing IL-2 and various dilutions of IM and ARTs alone and in combination. On day 3, fresh medium with fresh drug was added to the cultures. On day 7, cultures were evaluated for HIV production by measuring HIV p24 levels in the culture supernatants by ELISA (PerkinElmer Life Sciences, Inc., Boston, Massachusetts). Data were normalized to p24 levels in drug untreated controls (100%) and EC50 values determined by fitting the data to sigmoidal dose-response (variable slope) curves using GraphPad Prism 5.0 software.
# A potential use of CDK9 inhibitor for the treatment of HIV will probably be in combination with ARTs from other classes. We thus evaluated the antiviral interaction between IM and ARTs from the NRTI, integrase and protease inhibitor classes in PBMCs infectivity assays in vitro. We used the virus strain HIV-1 NL4-3 to ensure a robust viral replication in the assays. Although HIV-1 NL4-3 differs from HIV-1 BaL in usage of coreceptor for cell entry, it is expected to have similar sensitivity to the tested ARTs. […] These enhancements of ART potencies by IM are consistent with targeting of different steps of the HIV cycle by IM and the tested ARTs.
# [1] = read-out: Geometric mean ART EC50, + 1μM IM
# [2] = read-out: Geometric mean ART EC50, No IM
smiles,measurement,setting,value
"CC(C)(C)NC(=O)[C@@H]1CN(Cc2cccnc2)CCN1C[C@@H](O)C[C@@H](Cc1ccccc1)C(=O)N[C@H]1c2ccccc2C[C@H]1O [IND, indinavir]",decrease of ART EC50 value at 1 μM IM,,2.2 fold
same,EC50,"+ 1μM IM, read-out: Geometric mean ART EC50",3.55 nM
same,EC50,"No IM, read-out: Geometric mean ART EC50",7.74 nM
same,P24,"IND 1.8 nM, + IM",2.00 ng/mL
same,P24,"IND 1.8 nM, No IM",41.00 ng/mL
same,P24,"IND 5.5 nM, + IM",2.30 ng/mL
same,P24,"IND 5.5 nM, No IM",37.00 ng/mL
same,P24,"IND 16.6 nM, + IM",0.70 ng/mL
same,P24,"IND 16.6 nM, No IM",17.00 ng/mL
same,P24,"IND 50 nM, + IM",0.01 ng/mL
same,P24,"IND 50 nM, No IM",0.01 ng/mL
same,P24,"IND 150 nM, + IM",0.01 ng/mL
same,P24,"IND 150 nM, No IM",0.01 ng/mL
"Cc1nnc(C(=O)NC(C)(C)c2nc(C(=O)NCc3ccc(F)cc3)c(O)c(=O)n2C)o1 [RAL, raltegravir]",decrease of ART EC50 value at 1 μM IM,,3.3 fold
same,EC50,[1],2.12 nM
same,EC50,[2],6.98 nM
same,P24,"RAL 0.05 nM, + IM",9.50 ng/mL
same,P24,"RAL 0.05 nM, No IM",27.0 ng/mL
same,P24,"RAL 0.15 nM, + IM",6.00 ng/mL
same,P24,"RAL 0.15 nM, No IM",23.0 ng/mL
same,P24,"RAL 0.5 nM, + IM",6.50 ng/mL
same,P24,"RAL 0.5 nM, No IM",27.0 ng/mL
same,P24,"RAL 1.5 nM, + IM",5.00 ng/mL
same,P24,"RAL 1.5 nM, No IM",26.0 ng/mL
same,P24,"RAL 5 nM, + IM",2.30 ng/mL
same,P24,"RAL 5 nM, No IM",17.0 ng/mL
same,P24,"RAL 15 nM, + IM",1.10 ng/mL
same,P24,"RAL 15 nM, No IM",2.8 ng/mL
same,P24,"RAL 45 nM, + IM",0.01 ng/mL
same,P24,"RAL 45 nM, No IM",0.6 ng/mL
"C[C@H](Cn1cnc2c(N)ncnc21)OCP(=O)(O)O [TDF, tenofovir]",decrease of ART EC50 value at 1 μM IM,,3 fold
same,EC50,[1],190 nM
same,EC50,[2],600 nM
same,P24,"TDF 0.01 µM, + IM",10.0 ng/mL
same,P24,"TDF 0.01 µM, No IM",63.0 ng/mL
same,P24,"TDF 0.03 µM, + IM",9.0 ng/mL
same,P24,"TDF 0.03 µM, No IM",61.0 ng/mL
same,P24,"TDF 0.1 µM, + IM",6.6 ng/mL
same,P24,"TDF 0.1 µM, No IM",48.0 ng/mL
same,P24,"TDF 0.3 µM, + IM",3.8 ng/mL
same,P24,"TDF 0.3 µM, No IM",35.0 ng/mL
same,P24,"TDF 1 µM, + IM",1.7 ng/mL
same,P24,"TDF 1 µM, No IM",17.0 ng/mL
same,P24,"TDF 3 µM, + IM",0.7 ng/mL
same,P24,"TDF 3 µM, No IM",4.0 ng/mL
same,P24,"TDF 10 µM, + IM",0.3 ng/mL
same,P24,"TDF 10 µM, No IM",0.6 ng/mL
